Here are results for one substance from patent US12570709B2, “Self-assembling peptide amphiphiles displaying a transforming growth factor beta 1 (TGF-ß1) mimetic epitope” (Northwestern University, priority 2021, dated 2026).

Bridge positions count the residues as written; N and C are the ends. Ends that are not written are not given here. I, II: the chains in the order shown. * marks the point of attachment. Palmitoyl = CCCCCCCCCCCCCCCC(=O)*

The nature of series [1]: Transverse-relaxation (T2) NMR spectroscopy of PA assemblies. The conditions noted are these: TGF PA co-assembled at 10 mol % with diluent backbone PA. In kind it is physicochemical. The procedure:
NMR spectra were acquired at 600 MHz on a Brucker Neo system with QCI-F cryoprobe. NMR spectra for PAs were recorded at 25° C. using TFA-d, H2O/D2O in 9/1 ratio (D2O contains 0.05 wt. % 3-(trimethylsilyl) propionic-2,2,3,3-d4 acid, sodium salt) as solvents. Chemical shifts are reported in part per million (ppm). The […] was 15 μs and typical spectra required 32 scans.
The spin-spin relaxation rates were measured using the Carr-Purcell-Gill-Meiboom pulse sequence with a delay time of 0.2 ms in a variable loop. The peak intensity data was fit to and exponential in the form:
[formula] where τ is the length of the delay time, R2 is the spin-spin relaxation rate and b are the baseline.^2 Cell Culture

Series [2] has as its system collagen II, aggrecan and F-actin in human chondrocytes. As to the kind of experiment: Immunocytochemistry staining and fluorescence intensity analysis after three days. In kind it is cell-based. The conditions noted are these: three days in vitro. The procedure: For immunocytochemistry (ICC), 12-mm glass coverslips were coated with sterile filtered 0.01 mg/mL poly-D-lysine (Sigma-Aldrich) solution and incubated overnight at 37° C. The coverslips were washed three times with sterile water and air-dried for at least 30 minutes. Cells were seeded on coverslips at a density of approximately 3,000 cells/coverslip and cultured for 24 h. Cells were then treated with PA in solution for 3 days in vitro. Following treatment, cells were fixed in 4% paraformaldehyde for 15 minutes at room temperature.
Fixed samples were permeabilized and blocked in a solution of 0.1% (v/v) Triton X-100 and 1% normal horse serum (Invitrogen) for 2 hours at room temperature. Samples were incubated with primary antibodies overnight at 4° C. The following primary antibodies were used: rabbit anti-Sox9 (1:500, Abcam), mouse anti-Aggrecan (1:500, ThermoFisher), mouse anti-Collagen II (1:500, ThermoFisher), and mouse anti-Nuclei (1:500, Sigma-Aldrich). The next day, samples were incubated with AlexaFluor 488 secondary antibody, AlexaFluor 555 secondary antibody, Phalloidin AlexaFluor 488, and/or Phalloidin AlexaFluor 633 (1:1000, Invitrogen) for 2-3 h at room temperature. For 2D cell culture, samples were then incubated with DAPI (1:1000, Invitrogen) for 10 minutes at room temperature. If not already on a glass coverslip, samples were mounted with Immu-Mount (Thermo Scientific) and imaged on a Nikon A1R Spectral microscope. Image analysis was performed using ImageJ software.

A short description of series [3]: Cryo-TEM of PA nanostructures. Type of series: physicochemical. The following applies: 10 mol % co-assembly with diluent backbone PA. The procedure: 300-mesh copper grids with lacey carbon film (Electron Microscopy Sciences) were glow discharged for 30 seconds in a PELCO easiGlow system (Ted Pella, Inc.). PA solutions were prepared as previously described and then diluted to 1 mM in water before imaging. 7 μL of PA solution was placed onto grids, blotted, and plunge-frozen in liquid ethane using an FEI Vitrobot Mark IV (FEI), maintained at 95-100% humidity. While submerged in liquid nitrogen, vitrified samples were transferred to a Gatan 626 cryo-holder (Gatan) and imaged on a JEOL 1230 TEM operating at 100 kV accelerating voltage. Liquid nitrogen temperatures were maintained during imaging, and micrographs were captured with a Gatan 832 CCD camera.

Turning to “TGF PA-a: backbone PA-a (SEQ ID NO: 7) conjugated to cyclic TGF-β1 mimetic peptide (SEQ ID NO: 1) by a linker; co-assembled with diluent Backbone PA-a (chain Palmitoyl-AAEEK-OH; peptide CESPLKRQC; disulfide II:1-II:9; not fully specified (some residues); also: co-assembled with diluent backbone PA-a)”, the “relaxation rate for the alkyl tail protons, compared with TGF PA-b assemblies” value in series [1] was “nearly five times higher”. In addition, in series [2] (10 μM, ICC), the aggrecan synthesis result is listed as “significantly increased aggrecan synthesis at similar levels” and the “collagen II production compared with native rhTGF-β1” value is on record as “significantly more collagen II production than native rhTGF-β1”. Besides, the “chondrocyte phenotype (F-actin staining)” value in series [2] is “maintained healthy chondrocyte phenotypes and prevented hypertrophy”. Besides, the “width of ribbon-like nanostructures” value in series [3] is given as 50-60 nm.
